# From US10251937B2, “Retro-inverso analogs of spadin display increased antidepressant effects” (MEDINCELL, priority 2014, dated 2019)
# Square brackets hold non-standard residues; d marks the D form. Peptide text beside a SMILES is read from it.
# Molecular target: T1, TREK-1 channels (Homo sapiens, UniProt O95069)
# T1 construct: expressed in transfected cells
# T1 sequence (O95069 1-426): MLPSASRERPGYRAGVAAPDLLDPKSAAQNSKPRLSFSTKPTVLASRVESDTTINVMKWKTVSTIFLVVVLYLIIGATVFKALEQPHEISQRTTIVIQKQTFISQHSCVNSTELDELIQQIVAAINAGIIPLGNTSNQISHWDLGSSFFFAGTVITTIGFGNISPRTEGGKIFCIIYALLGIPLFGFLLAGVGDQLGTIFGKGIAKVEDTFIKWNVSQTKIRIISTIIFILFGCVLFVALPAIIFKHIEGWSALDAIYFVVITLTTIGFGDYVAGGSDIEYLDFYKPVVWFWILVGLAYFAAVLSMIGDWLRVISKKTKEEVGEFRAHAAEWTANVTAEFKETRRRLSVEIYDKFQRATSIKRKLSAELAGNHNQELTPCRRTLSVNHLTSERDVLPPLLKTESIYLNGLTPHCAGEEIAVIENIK
# Assay: TREK-1 current inhibition, whole cell patch clamp on h-TREK-1/HEK cell line
# Assay type: cell-based
# Method: The human-TREK-1/HEK293 cell line (h-TREK-1/HEK) (Moha ou Maati, H. et al. (2011). PloS one, 6 (10), e25602) and HEK-IKS cell line (Ducroq, J. et al, (2010) Br J Pharmacol, 159(1):93-101) were grown in the presence of 0.5 mg/mL G418 in Dulbecco's modified Eagle's medium supplemented with 10% (v/v) heat inactivated fetal bovine serum containing 1% (v/v) penicillin/streptomycin in an atmosphere of 95% air/5% CO2.
# All electrophysiological experiments were performed on h-TREK-1/HEK cells seeded at a density of 20 000 cells/35-mm dish after 2-6 days of culture. All electrophysiological recordings were performed in whole cell configuration of the patch clamp technique. Each current was evaluated by using a RK 400 patch clamp amplifier (Axon Instrument, USA), low-pass filtered at 3 kHz and digitized at 10 kHz using a 12-bit analog-to-digital converter digidata (1322 series, Axon Instrument, USA). All current amplitudes are expressed in current densities. Results were expressed as mean±standard error of the mean (SEM). […] The bath solution contained 150 mM NaCl, 5 mM KCl, 3 mM MgCl2, 1 mM CaCl2 and 10 mM HEPES adjusted to pH 7.4 with NaOH. The pipette solution contained 155 mM KCl, 3 mM MgCl2, 5 mM EGTA and 10 mM HEPES adjusted to pH 7.2 with KOH. TREK-1 currents were evaluated in the presence of a cocktail of potassium channel inhibitors (K+ blockers: 3 mM 4-aminopyridine (4-AP), 10 mM tetraethylammonium (TEA), 10 μM glibenclamide, 100 nM apamin and 50 nM charybdotoxin). All experiments were performed at room temperature (21-22° c.). Stimulation protocols and data acquisition were carried out using a microcomputer (Dell Pentium) with a commercial software and hardware (pClamp 8.2). Currents were recorded by voltage clamp steps to membrane potentials of −100 to +60 mV in 20 mV steps applied from a holding potential of −80 mV. Duration of depolarization pulses were […], and the pulse cycling rate was 5 sec. TREK-1 current amplitudes were evaluated at the end of the stimulation pulses. Cells were continuously superfused with a microperfusion system. Inhibitory effects of spadin and analogs were performed on arachidonic acid pre-activated TREK-1 currents. Spadin and analogs were tested at the unique dose of 100 nM. For both Analog 3 (SEQ ID:4) and Analog 8 (SEQ ID:9) concentration-dependant inhibitions were performed by applying concentrations ranging between 1 nM to 1 μM. IKS currents were activated by voltage clamp steps of membrane potentials from −100 to +100 mV in 20 mV steps applied from a holding potential of −80 mV. Tail currents were generated by repolarization to −40 mV. Duration of both depolarization and repolarization pulses were 2.4 s, and the pulse cycling rate was 10 s. IKR currents were activated by voltage clamp steps of membrane potentials from −100 to +100 mV in 10 mV steps applied from a holding potential of […] and tail currents were generated by a repolarization to […]. Duration of both depolarization and repolarization pulses were 1 s, and the pulse cycling rate was 5 s. The amplitudes of IKS and IKR currents were calculated at both the end of the first pulse and the peak of the tail pulse.
# Neuropharmacology 62, 278, (2012)) was used as reference.
smiles,measurement,setting,value
"CC[C@@H](C)[C@@H](NC(=O)CNC(=O)[C@H](NC(=O)[C@@H](CO)NC(=O)[C@@H](Cc1c[nH]c2ccccc12)NC(=O)CNC(=O)[C@@H](CC(C)C)NC(=O)[C@@H](CCCNC(=N)N)NC(C)=O)C(C)C)C(=O)N1CCC[C@@H]1C(=O)NCC(=O)N[C@H](CO)C(=O)N[C@H](Cc1c[nH]c2ccccc12)C(=O)N[C@H](CCCNC(=N)N)C(=O)N1CCC[C@@H]1C(=O)N[C@H](CC(C)C)C(=O)N1CCC[C@@H]1C(=O)N[C@H](C)C(N)=O [Analog 3, Ac-rlGwsvGipGswrplpa-NH2] (Ac-[dR][dL]G[dW][dS][dV]G[dI][dP]G[dS][dW][dR][dP][dL][dP][dA]-NH2)",blockade effect on TREK-1 channel activity compared to spadin,"100 nM, n=10 to 12",increased blockade effect
same,higher affinity for TREK-1 channels than spadin,compared to spadin IC50,6 fold
